Tested on: immortalized human sebocyte cell line, SZ95
Experiment: In vitro assay of inhibition of lipid synthesis
Type: cell-based
Conditions: 48 h, SZ95 sebocytes, 75 μM arachidonic acid, AdipoRed, Table 2, finer classes for compounds with IC50 less than 250 nM
Protocol: In Vitro Assay of Inhibition of Lipid Synthesis
To evaluate the inhibition of lipid synthesis, the immortalized human sebocyte cell line, SZ95 (stablished by Zouboulis, C. C. et al J Invest Dermatol 1999; 113:1011-20), was treated with arachidonic acid (AA) in presence or absence of compound. Lipids were detected by using a lipid sensing fluorophore.
Compounds were dissolved in dimethylsulfoxide (DMSO) 100%. Then the stocks were serial diluted 1/3 in DMSO 100%, and this battery of solutions were diluted 1/10 in culture medium, to minimize the percentage of the DMSO over cells.
10 k cells were plated in 384 well microtiter plates and incubated at 37° C. and 5% CO2 in DMEM/F12 supplemented with 10% FBS, 1.25 ng/ml of rhEGF and GA-1000 before of compound and stimulus addition. After 24 h, compounds dissolved in culture media were added over cells, diluting the solutions prepared 1/40 in the final volume of the assay. Then, cells and compounds were preincubated for 30 min at 37° C. and 5% CO2. After this prior incubation, the lipid synthesis was induced by 75 μM of AA final solution, preparing a solution 10× in culture media. Finally, SZ95 treated were incubated for 48 h at 37° C. and 5% CO2.
Neutral lipids were measured using AdipoRed™, purchased from LONZA. To do that, cells were washed with PBS and incubated with a solution of AdipoRed™ (final dilution 1/80 in PBS) for 30 min at room temperature. After the staining process, the fluorescence intensity (FI) was quantified using a fluorescence plate reader (excitation 485 nm; emission 535).
Activity of compounds were calculated as % of inhibition considering the maximal fluorescence for AA-stimulated cells and the minimum fluorescence for unstimulated cells as controls.

Compared with `CCCCCCCCCCCCCc1c[nH]c(C(=O)OCCOCCOCCOCCO)c1F` [Example 42, 2-(2-(2-(2-Hydroxyethoxy)ethoxy)ethoxy)ethyl 3-fluoro-4-tridecyl-1H-pyrrole-2-carboxylate], `CCCCCCCCCCCCCc1c[nH]c(C(=O)OCCOCCOCC)c1F` [Example 43, 2-(2-Ethoxyethoxy)ethyl 3-fluoro-4-tridecyl-1H-pyrrole-2-carboxylate] is lower in IC50: 100 to 250 nM for the first, under 50 nM for the second.

First: CCCCCCCCCCCCCc1c[nH]c(C(=O)OC(C)OC(=O)OC(C)C)c1F (stereo not drawn) [Example 44, 1-((Isopropoxycarbonyl)oxy)ethyl 3-fluoro-4-tridecyl-1H-pyrrole-2-carboxylate]
Second: CCCCCCCCCCCCCc1c[nH]c(C(=O)OC(C)OC(=O)OC(C)(C)C)c1F (stereo not drawn) [Example 45, 1-((Tert-butoxycarbonyl)oxy)ethyl 3-fluoro-4-tridecyl-1H-pyrrole-2-carboxylate]
The IC50 of the first is lower: under 50 nM for the first, 50 to 100 nM for the second.

First: CCCCCCCCCCCCCc1c[nH]c(C(=O)OC(C)OC(=O)OC2CCCCC2)c1F (stereo not drawn) [Example 47, 1-(((Cyclohexyloxy)carbonyl)oxy)ethyl 3-fluoro-4-tridecyl-1H-pyrrole-2-carboxylate]
Second: CCCCCCCCCCCCCc1c[nH]c(C(=O)OC(C)OC(=O)OCCOC)c1F (stereo not drawn) [Example 49, 1-(((2-Methoxyethoxy)carbonyl)oxy)ethyl 3-fluoro-4-tridecyl-1H-pyrrole-2-carboxylate]
The IC50 of the first is higher: 50 to 100 nM for the first, under 50 nM for the second. The second is the more potent here.

`CCCCCCCCCCCCCc1c[nH]c(C(=O)OC(C)OC(=O)OCc2ccccc2)c1F` (stereo not drawn) [Example 48, 1-(((Benzyloxy)carbonyl)oxy)ethyl 3-fluoro-4-tridecyl-1H-pyrrole-2-carboxylate] and `CCCCCCCCCCCCCc1c[nH]c(C(=O)OC(C)OC(=O)OCCCO)c1F` (stereo not drawn) [Example 50, 1-(((3-Hydroxypropoxy)carbonyl)oxy)ethyl 3-fluoro-4-tridecyl-1H-pyrrole-2-carboxylate] cannot be ordered by IC50: under 50 nM for the first, under 50 nM for the second.

`CCCCCCCCCCCCCc1c[nH]c(C(=O)OC(C)OC(=O)OCCOCCOCC)c1F` (stereo not drawn) [Example 51, 4-Oxo-3,5,8,11-tetraoxatridecan-2-yl 3-fluoro-4-tridecyl-1H-pyrrole-2-carboxylate] and `CCCCCCCCCCCCCCc1c[nH]c(C(=O)O)c1F` [Example 52, 3-Fluoro-4-tetradecyl-1H-pyrrole-2-carboxylic acid] cannot be ordered by IC50: under 50 nM for the first, under 50 nM for the second.

`CCCCCCCCCCCCCCCc1c[nH]c(C(=O)O)c1F` [Example 53, 3-Fluoro-4-pentadecyl-1H-pyrrole-2-carboxylic acid] and `CCCCCCCCCCCCCCCCCc1c[nH]c(C(=O)O)c1F` [Example 54, 3-Fluoro-4-heptadecyl-1H-pyrrole-2-carboxylic acid] cannot be ordered by IC50: under 50 nM for the first, under 50 nM for the second.

Compared with `CCCCCCCCCCCCc1cc(F)c(C(=O)O)[nH]1` [Example 55, 5-Dodecyl-3-fluoro-1H-pyrrole-2-carboxylic acid], `CCCCCCCCCCCCc1c[nH]c(C(=O)O)c1Cl` [Example 58, 3-Chloro-4-dodecyl-1H-pyrrole-2-carboxylic acid] is lower in IC50: 50 to 100 nM for the first, under 50 nM for the second. The second is the more potent here.

First: CCCCCCCCCCc1c[nH]c(C(=O)O)c1Cl [Example 56, 3-Chloro-4-decyl-1H-pyrrole-2-carboxylic acid]
Second: CCCCCCCCCCCc1c[nH]c(C(=O)O)c1Cl [Example 57, 3-Chloro-4-undecyl-1H-pyrrole-2-carboxylic acid]
The IC50 of the first is higher: 50 to 100 nM for the first, under 50 nM for the second.

Same assay, conditions: 48 h, SZ95 sebocytes, lipid synthesis induced by 75 μM arachidonic acid, AdipoRed fluorescence, Table 1

`CCCCCCCCCCCCCc1c[nH]c(C(=O)OCCOCCOCCOCCO)c1F` [Example 42, 2-(2-(2-(2-Hydroxyethoxy)ethoxy)ethoxy)ethyl 3-fluoro-4-tridecyl-1H-pyrrole-2-carboxylate] and `CCCCCCCCCCCCCc1c[nH]c(C(=O)OCCOCCOCC)c1F` [Example 43, 2-(2-Ethoxyethoxy)ethyl 3-fluoro-4-tridecyl-1H-pyrrole-2-carboxylate] cannot be ordered by IC50: under 250 nM for the first, under 250 nM for the second.

`CCCCCCCCCCCCCc1c[nH]c(C(=O)OC(C)OC(=O)OC(C)C)c1F` (stereo not drawn) [Example 44, 1-((Isopropoxycarbonyl)oxy)ethyl 3-fluoro-4-tridecyl-1H-pyrrole-2-carboxylate] and `CCCCCCCCCCCCCc1c[nH]c(C(=O)OC(C)OC(=O)OC(C)(C)C)c1F` (stereo not drawn) [Example 45, 1-((Tert-butoxycarbonyl)oxy)ethyl 3-fluoro-4-tridecyl-1H-pyrrole-2-carboxylate] cannot be ordered by IC50: under 250 nM for the first, under 250 nM for the second.

First: CCCCCCCCCCCCCc1c[nH]c(C(=O)OC(C)OC(=O)OCCCCCCCCC)c1F (stereo not drawn) [Example 46, 1-(((Nonyloxy)carbonyl)oxy)ethyl 3-fluoro-4-tridecyl-1H-pyrrole-2-carboxylate]
Second: CCCCCCCCCCCCCc1c[nH]c(C(=O)OC(C)OC(=O)OCCCO)c1F (stereo not drawn) [Example 50, 1-(((3-Hydroxypropoxy)carbonyl)oxy)ethyl 3-fluoro-4-tridecyl-1H-pyrrole-2-carboxylate]
The IC50 of the first is higher: over 5000 nM for the first, under 250 nM for the second.

`CCCCCCCCCCCCCc1c[nH]c(C(=O)OC(C)OC(=O)OC2CCCCC2)c1F` (stereo not drawn) [Example 47, 1-(((Cyclohexyloxy)carbonyl)oxy)ethyl 3-fluoro-4-tridecyl-1H-pyrrole-2-carboxylate] and `CCCCCCCCCCCCCc1c[nH]c(C(=O)OC(C)OC(=O)OCCOC)c1F` (stereo not drawn) [Example 49, 1-(((2-Methoxyethoxy)carbonyl)oxy)ethyl 3-fluoro-4-tridecyl-1H-pyrrole-2-carboxylate] cannot be ordered by IC50: under 250 nM for the first, under 250 nM for the second.

`CCCCCCCCCCCCCc1c[nH]c(C(=O)OC(C)OC(=O)OCc2ccccc2)c1F` (stereo not drawn) [Example 48, 1-(((Benzyloxy)carbonyl)oxy)ethyl 3-fluoro-4-tridecyl-1H-pyrrole-2-carboxylate] and `CCCCCCCCCCCCCc1c[nH]c(C(=O)OC(C)OC(=O)OCCOCCOCC)c1F` (stereo not drawn) [Example 51, 4-Oxo-3,5,8,11-tetraoxatridecan-2-yl 3-fluoro-4-tridecyl-1H-pyrrole-2-carboxylate] cannot be ordered by IC50: under 250 nM for the first, under 250 nM for the second.

`CCCCCCCCCCCCCCc1c[nH]c(C(=O)O)c1F` [Example 52, 3-Fluoro-4-tetradecyl-1H-pyrrole-2-carboxylic acid] and `CCCCCCCCCCCCCCCc1c[nH]c(C(=O)O)c1F` [Example 53, 3-Fluoro-4-pentadecyl-1H-pyrrole-2-carboxylic acid] cannot be ordered by IC50: under 250 nM for the first, under 250 nM for the second.

`CCCCCCCCCCCCCCCCCc1c[nH]c(C(=O)O)c1F` [Example 54, 3-Fluoro-4-heptadecyl-1H-pyrrole-2-carboxylic acid] and `CCCCCCCCCCCCc1c[nH]c(C(=O)O)c1Cl` [Example 58, 3-Chloro-4-dodecyl-1H-pyrrole-2-carboxylic acid] cannot be ordered by IC50: under 250 nM for the first, under 250 nM for the second.

`CCCCCCCCCCCCc1cc(F)c(C(=O)O)[nH]1` [Example 55, 5-Dodecyl-3-fluoro-1H-pyrrole-2-carboxylic acid] and `CCCCCCCCCCCc1c[nH]c(C(=O)O)c1Cl` [Example 57, 3-Chloro-4-undecyl-1H-pyrrole-2-carboxylic acid] cannot be ordered by IC50: under 250 nM for the first, under 250 nM for the second.

With `CCCCCCCCCCc1c[nH]c(C(=O)O)c1Cl` [Example 56, 3-Chloro-4-decyl-1H-pyrrole-2-carboxylic acid] the IC50 was under 250 nM.

From US20210220328A1, “PYRROLE DERIVATIVES AS ACC INHIBITORS” (Almirall, S.A., priority 2017, published 2021)
